Measurements published in patent US20210196635A1, “DRUG-CONTAINING PARTICLE” (TOWA PHARMACEUTICAL CO., LTD., priority 2018, published 2021).

Assay: Average particle diameter (D50) of powder
Type: physicochemical
Conditions: powder as used for coating
Text: The term “an average particle diameter” used herein refers to a particle diameter of 50% cumulative percentage (D50) on volume-based measurement of powder particle, which can be measured on the mass with a commercially available laser diffraction type particle size distribution measuring device and sonic wave vibration type sieving analyzer.

C[C@H]1COc2c(N3CCN(C)CC3)c(F)cc3c(=O)c(C(=O)O)cn1c23.C[C@H]1COc2c(N3CCN(C)CC3)c(F)cc3c(=O)c(C(=O)O)cn1c23.O [Compound A, levofloxacin 0.5 hydrate]
average particle diameter: 3.38 μm
